Laboratory results: publication PMC9399069, “Imaging PARP with [^18F]rucaparib in pancreatic cancer models” (European Journal of Nuclear Medicine and Molecular Imaging, 2022)
Where “and” joins values, the source holds several entries; their conditions need not be identical. Equal values may be shown once. One block for each compound: values may come before it.

Assays:
PSN1 cells [1] = test: In vitro uptake and binding selectivity of [18F]rucaparib in PSN1 cells; type: cell-based, human; details: for Blocking of [18F]rucaparib uptake: unlabelled inhibitor 100 μM for 45 min before [18F]rucaparib (100 nM), further 45 min
Experimental: (§1) AsPC1 (1 × 10^5 cells/well) and PSN1 cells (7.5 × 10^4 cells/well) were seeded separately in 24-well plates (in 300 μL growth medium) and allowed to adhere for at least 20 h. […] To assess [^18F]rucaparib-binding selectivity, unlabelled PARP inhibitors, IMPDH2 or ALDH2 inhibitor, were added (100 μM, in 270 μL growth medium) for 45 min at 37 °C before addition of [^18F]rucaparib (156 kBq, 6.8 GBq/μmol; [^TotalF]rucaparib final concentration: 100 nM), and the cells were incubated at 37 °C for a further 45 min. Cell culture medium was removed, and cells were washed with PBS. Cells were lysed using RIPA buffer for 15 min at room temperature, and the amount of ^18F in the cell lysates was measured using an automated gamma counter (PerkinElmer), normalising for the number of cells.
(§2) Cells were lysed and the amount of ^18F in the cell lysates was measured as above.

AsPC1 cells [2] = test: In vitro uptake and binding selectivity of [18F]rucaparib in AsPC1 cells; type: cell-based, human; details: for Blocking of [18F]rucaparib uptake: unlabelled inhibitor 100 μM for 45 min before [18F]rucaparib (100 nM), further 45 min
Experimental: as §1, §2

PSN1 cells [3] = test: Cell retention of [18F]rucaparib and [18F]olaparib in PSN1 cells; type: cell-based, human
Experimental: (§3) AsPC1 (1 × 10^5 cells/well) and PSN1 cells (7.5 × 10^4 cells/well) were exposed to [^18F]rucaparib (100 kBq, 4.8 GBq/μmol; [^TotalF]rucaparib final concentration: 258 nM) or [^18F]olaparib (400 kBq, 2.8 GBq/μmol: [^TotalF]olaparib final concentration: 242 nM) in 24-well plates at 37 °C for 30 min. Cell culture medium was removed, and cells were washed with PBS, followed by the addition of fresh medium (300 μL). Cells were then further incubated at 37 °C. Cell culture medium was removed, and cells were washed with PBS at different times (0–3 h). Cells were lysed using RIPA buffer for 15 min at room temperature, and the amount of ^18F in the cell lysates was measured as above.

AsPC1 cells [4] = test: Cell retention of [18F]rucaparib and [18F]olaparib in AsPC1 cells; type: cell-based, human
Experimental: as §3

PSN1 xenografts [5] = test: Dynamic PET/CT imaging of [18F]rucaparib in PSN1 tumour-bearing mice; type: in vivo, Balb/c nu/nu mice
Experimental: Female Balb/c nu/nu (OlaHsd-Foxn1^nu) mice, aged 4–6 weeks, were purchased from Envigo (UK). Animals were housed in IVC cages, up to 6 per cage, in an artificial day–night cycle facility. Food and water were provided ad libitum. PSN1 cells were harvested using trypsin, washed twice with PBS and reconstituted in PBS:Matrigel® Matrix High Concentration (1:1). Cell suspensions (PSN1: 2 × 10^6 cells/ 100 μL) were injected subcutaneously in the lower right flank. […] Animal was anesthetised by 4% isoflurane gas (0.5 L/min O2) and maintained at 2.5% at 37 °C throughout the duration of image acquisition. PET images were reconstructed using U-SPECT-Rec3.22 software (MILabs, Utrecht, The Netherlands), applying a pixel-based algorithm, ordered subset expectation maximisation (OSEM) with 6 subsets, 4 iterations and 0.8 mm voxel size for fluorine-18 (energy window settings 477.9–584.1 keV). Reconstructed PET and CT images were viewed and analysed using PMOD v.3.37 (PMOD Technologies, Zurich, Switzerland).

PSN1 xenografts [6] = test: Ex vivo biodistribution of [18F]rucaparib in PSN1 tumour-bearing mice; parameters: species or system Balb/c nu/nu mice; details: for Ex vivo biodistribution, Blood / Ex vivo biodistribution, Bone / Ex vivo biodistribution, Fat / Ex vivo biodistribution, Heart / Ex vivo biodistribution, Kidney / Ex vivo biodistribution, Large intestine / Ex vivo biodistribution, Lung / Ex vivo biodistribution, Muscle / Ex vivo biodistribution, Pancreas / Ex vivo biodistribution, Small intestine / Ex vivo biodistribution, Tumour: i.v.; for Tumour uptake / Tumour-to-blood (T/B) ratio: PSN1 xenografts; for Tumour uptake: mean ± SD
Experimental: Female Balb/c nu/nu (OlaHsd-Foxn1^nu) mice, aged 4–6 weeks, were purchased from Envigo (UK). Animals were housed in IVC cages, up to 6 per cage, in an artificial day–night cycle facility. Food and water were provided ad libitum.
PSN1 cells were harvested using trypsin, washed twice with PBS and reconstituted in PBS:Matrigel® Matrix High Concentration (1:1). Cell suspensions (PSN1: 2 × 10^6 cells/ 100 μL) were injected subcutaneously in the lower right flank.
Animals were administered [^18F]rucaparib (0.87–11.38 MBq in 100 μL of PBS, Am = 1.5–30.9 GBq/μmol) by intravenous injection via the lateral tail vein. To evaluate the selectivity of tumour uptake, an excess of unlabelled rucaparib or olaparib (0.5 mg) was co-administered as a blocking agent in some animals. Dynamic PET images (1 h) were acquired using a MILabs VECTor^4 camera, equipped with an ultra-high resolution rat/mouse collimator (1.8 mm), followed by a cone-beam CT scan (55 kV, 0.19 mA) for anatomical reference and attenuation correction. Animal was anesthetised by 4% isoflurane gas (0.5 L/min O2) and maintained at 2.5% at 37 °C throughout the duration of image acquisition. PET images were reconstructed using U-SPECT-Rec3.22 software (MILabs, Utrecht, The Netherlands), applying a pixel-based algorithm, ordered subset expectation maximisation (OSEM) with 6 subsets, 4 iterations and 0.8 mm voxel size for fluorine-18 (energy window settings 477.9–584.1 keV). Reconstructed PET and CT images were viewed and analysed using PMOD v.3.37 (PMOD Technologies, Zurich, Switzerland).
Either 1 h or 2 h after radiolabelled compound injection, animals were euthanised. Selected organs, tissues and blood were removed, and the percentage of the injected dose per gram of tissue (%ID/g) was determined, using a HIDEX automated gamma counter.

[7] = PSN1 tumour-bearing mice, i.v., n=3
[8] = PSN1 tumour-bearing mice, i.v., n=3, biphasic
[9] = 1 h post-injection, individual animals (n=3)
[10] = 2 h post-injection, individual animals (n=6)

Structure (SMILES): COc1c(C)c2c(c(O)c1C/C=C(\C)CCC(=O)OCCN1CCOCC1)C(=O)OC2 [mycophenolate mofetil, reference compound]
Blocking of [18F]rucaparib uptake (PSN1 cells [1]; PSN1 cells): significantly reduce
Blocking of [18F]rucaparib uptake (AsPC1 cells [2]): significantly reduce

Structure (SMILES): O=c1c(-c2ccc(O)cc2)coc2cc(O[C@@H]3O[C@H](CO)[C@@H](O)[C@H](O)[C@H]3O)ccc12 [daidzin, reference compound]
Blocking of [18F]rucaparib uptake (PSN1 cells [1]; PSN1 cells): significantly reduce
Blocking of [18F]rucaparib uptake (AsPC1 cells [2]): significantly reduce

Elimination pathways (PSN1 xenografts [5]; PSN1 tumour-bearing mice, dynamic imaging and biodistribution): hepatobiliary and renal
Half-life for liver elimination (PSN1 xenografts [5]; PSN1 tumour-bearing mice, i.v.): 31 ± 19 min
Weighted blood half-life (PSN1 xenografts [5]; PSN1 tumour-bearing mice, i.v., 8.9 μg or 27.5 nmol/kg): 4.3 ± 0.62 min
Blood clearance, fraction of fast phase (PSN1 xenografts [5]; [7]): 54 ± 10%
Blood clearance, fraction of slow phase (PSN1 xenografts [5]; [7]): 46 ± 10%
Blood clearance, fast half-life (PSN1 xenografts [5]; [8]): 1.7 ± 0.44 min
Blood clearance, slow half-life (PSN1 xenografts [5]; [8]): 16 ± 10 min
Tumour-to-muscle (T/M) ratio from PET/CT images (PSN1 xenografts [5]; PSN1 xenografts, 50 min post-injection): 2.3 ± 1.1
Time of tumour uptake (VOI analysis) (PSN1 xenografts [5]; PSN1 xenografts, dynamic PET): ≤ 10 min
Time of uptake in kidney and bladder (PSN1 xenografts [5]; dynamic PET, indicates fast renal clearance): ≤ 5 min
Ex vivo biodistribution, Blood (PSN1 xenografts [6]; [9]): 3.51 %ID/g and 3.67 %ID/g and 3.59 %ID/g
Ex vivo biodistribution, Bone (PSN1 xenografts [6]; [9]): 4.90 %ID/g and 6.79 %ID/g and 5.26 %ID/g
Ex vivo biodistribution, Fat (PSN1 xenografts [6]; [9]): 6.53 %ID/g and 4.98 %ID/g and 6.82 %ID/g
Ex vivo biodistribution, Muscle (PSN1 xenografts [6]; [9]): 2.63 %ID/g and 4.25 %ID/g and 3.13 %ID/g
Ex vivo biodistribution, Small intestine (PSN1 xenografts [6]; [9]): 33.79 %ID/g and 46.24 %ID/g
Ex vivo biodistribution, Tumour (PSN1 xenografts [6]; [9]): 5.25 %ID/g and 6.05 %ID/g and 5.16 %ID/g
Tumour uptake (PSN1 xenografts [6]; 1 h after i.v. administration): 5.5 ± 0.5 %ID/g and 5.49 ± 0.49 %ID/g
Tumour-to-blood (T/B) ratio (PSN1 xenografts [6]; 1 h post-administration): 1.53 ± 0.11
Tumour-to-blood (T/B) ratio (PSN1 xenografts [6]; 2 h post-administration): 4.33 ± 2.1
Tumour uptake (PSN1 xenografts [6]; 2 h post-administration): 2.2 ± 0.34 %ID/g
Structure (SMILES): CNCc1ccc(-c2[nH]c3cc([18F])cc4c3c2CCNC4=O)cc1 [[^18F]rucaparib]
Uptake and retention compared with [TotalF]olaparib (PSN1 cells [3]): 100 fold
Uptake and retention compared with [TotalF]olaparib (AsPC1 cells [4]): 100 fold
Cellular uptake (time) (PSN1 cells [1]; PSN1 cells, [TotalF]rucaparib 258 nM, 37 °C, Fig. 1B): < 1 min
Cell association of [18F]rucaparib (PSN1 cells [1]; PSN1 versus AsPC1 cells, 64 nM and 258 nM, 37 °C, 30 min): higher in PSN1 cells than in AsPC1 cells
Ex vivo biodistribution, Heart (PSN1 xenografts [6]; [9]): 13.27 %ID/g and 16.24 %ID/g and 17.47 %ID/g
Ex vivo biodistribution, Kidney (PSN1 xenografts [6]; [9]): 17.24 %ID/g and 30.17 %ID/g and 36.00 %ID/g
Ex vivo biodistribution, Large intestine (PSN1 xenografts [6]; [9]): 12.50 %ID/g and 16.33 %ID/g and 14.08 %ID/g
Ex vivo biodistribution, Lung (PSN1 xenografts [6]; [9]): 17.76 %ID/g and 25.71 %ID/g and 27.51 %ID/g
Ex vivo biodistribution, Pancreas (PSN1 xenografts [6]; [9]): 19.47 %ID/g and 23.54 %ID/g and 23.22 %ID/g
Ex vivo biodistribution, Blood (PSN1 xenografts [6]; [10]): 0.92 %ID/g and 0.49 %ID/g and 0.48 %ID/g and 1.57 %ID/g and 0.51 %ID/g and 0.44 %ID/g
Ex vivo biodistribution, Bone (PSN1 xenografts [6]; [10]): 3.49 %ID/g and 2.71 %ID/g and 2.38 %ID/g and 3.10 %ID/g and 2.18 %ID/g and 2.26 %ID/g
Ex vivo biodistribution, Fat (PSN1 xenografts [6]; [10]): 1.32 %ID/g and 0.74 %ID/g and 0.84 %ID/g and 1.78 %ID/g and 1.03 %ID/g and 0.86 %ID/g
Ex vivo biodistribution, Heart (PSN1 xenografts [6]; [10]): 2.44 %ID/g and 2.15 %ID/g and 1.73 %ID/g (2×) and 1.61 %ID/g and 1.27 %ID/g
Ex vivo biodistribution, Kidney (PSN1 xenografts [6]; [10]): 7.28 %ID/g and 6.56 %ID/g and 5.54 %ID/g and 7.41 %ID/g and 4.70 %ID/g and 4.13 %ID/g
Ex vivo biodistribution, Large intestine (PSN1 xenografts [6]; [10]): 23.81 %ID/g and 19.26 %ID/g and 15.83 %ID/g and 25.44 %ID/g and 36.97 %ID/g and 43.06 %ID/g
Ex vivo biodistribution, Lung (PSN1 xenografts [6]; [10]): 8.77 %ID/g and 6.24 %ID/g and 4.58 %ID/g and 9.27 %ID/g and 5.27 %ID/g
Ex vivo biodistribution, Muscle (PSN1 xenografts [6]; [10]): 2.51 %ID/g and 1.58 %ID/g and 1.90 %ID/g and 2.77 %ID/g and 1.57 %ID/g (2×)
Ex vivo biodistribution, Pancreas (PSN1 xenografts [6]; [10]): 13.99 %ID/g and 9.45 %ID/g and 9.78 %ID/g and 11.07 %ID/g and 9.35 %ID/g and 7.70 %ID/g
Ex vivo biodistribution, Small intestine (PSN1 xenografts [6]; [10]): 16.44 %ID/g and 9.50 %ID/g and 19.42 %ID/g and 22.39 %ID/g and 10.51 %ID/g and 13.44 %ID/g
Ex vivo biodistribution, Tumour (PSN1 xenografts [6]; [10]): 2.58 %ID/g and 2.10 %ID/g and 1.74 %ID/g and 2.60 %ID/g and 3.45 %ID/g and 2.99 %ID/g
Cellular uptake (time) (AsPC1 cells [2]; [TotalF]rucaparib 258 nM, 37 °C, Fig. 1B): < 1 min
